From the supplement of paper PMC10307832

These cell lines were tested with CC(C)CCN1c2nc(Nc3cc(F)c(O)c(F)c3)ncc2N(C)C(=O)C1C [BI-D1870] (assay: relative viability (nuclei count vs DMSO), 5 days (fraction); higher = more cells survive). Conditions: 4 µM.
In short: (§1)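 Vehicle-anchored 1536-well plates of lung cancer cell lines, held overnight at 37 °C, were pinned with five library-drug doses (not always all listed) spaced by √10. No medium change followed over the next 5 days, after which the cells were fixed, permeabilised and Hoechst-stained together and imaged at 4×. Nuclei were counted with MetaXpress, and viability is treated-well nuclei over vehicle-well nuclei, taken as a median across plates. Plates passed with control CV below 25% and at least one doubling.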

Cell Line NCI-H1395 has a relative viability of 0.827.

The cell lines below were run with O=c1ncccn1[C@@H]1O[C@H](CO)[C@@H](O)[C@H]1O [Zebularine] in the same assay as above. Conditions: 1 µM.
In short: as §1

Going from NCI-H2085 to Calu-6, the relative viability rises from 1 to 1.18.

HCC-366 and NCI-H1666 are the same in relative viability: 1.03 for the first, 1.03 for the second.

Compared with NCI-H596, LK-2 is lower in relative viability: 1.12 for the first, 1 for the second.

First: NCI-H2087
Second: SK-MES-1
The relative viability of the first is lower: 1.04 for the first, 1.11 for the second.

Compared with H3255, COR-L23 is higher in relative viability: 1.01 for the first, 1.07 for the second.

Compared with COR-L 105, IA-LM is higher in relative viability: 1.03 for the first, 1.12 for the second.

Compared with LOU-NH91, NCI-H2170 is higher in relative viability: 0.976 for the first, 1.1 for the second.

First: NCI-H2405
Second: HOP-62
The relative viability of the first is lower: 1.02 for the first, 1.11 for the second.

Compared with HCC-44, A549 is higher in relative viability: 1.05 for the first, 1.08 for the second.

Compared with LU99A, BEN is lower in relative viability: 1.06 for the first, 0.913 for the second.

Compared with HARA, HCC-78 is lower in relative viability: 1.09 for the first, 1.07 for the second.

Going from NCI-H322M to LCLC-97TM1, the relative viability rises from 0.98 to 1.03.

Going from NCI-H2009 to A-427, the relative viability rises from 1.05 to 1.11.

NCI-H661 and NCI-H1734 are the same in relative viability: 1.02 for the first, 1.02 for the second.

Going from NCI-H460 to NCI-H2347, the relative viability rises from 1.07 to 1.11.

Going from SK-LU-1 to NCI-H1395, the relative viability falls from 1.07 to 0.929.

Same assay, conditions: 3.162 µM

Compared with NCI-H2085, Calu-6 is higher in relative viability: 0.949 for the first, 0.99 for the second.

Compared with HCC-366, NCI-H1666 is lower in relative viability: 0.995 for the first, 0.904 for the second.

First: NCI-H596
Second: LK-2
The relative viability of the first is lower: 0.954 for the first, 1.03 for the second.

Compared with NCI-H2087, SK-MES-1 is higher in relative viability: 0.949 for the first, 1.06 for the second.

First: H3255
Second: COR-L23
The relative viability of the first is lower: 0.948 for the first, 1.05 for the second.

Going from COR-L 105 to IA-LM, the relative viability falls from 0.952 to 0.809.

LOU-NH91 and NCI-H2170 are the same in relative viability: 1.01 for the first, 1.01 for the second.

First: NCI-H2405
Second: HOP-62
The relative viability of the first is higher: 0.992 for the first, 0.911 for the second.

Compared with HCC-44, A549 is lower in relative viability: 1.02 for the first, 0.913 for the second.

Going from LU99A to BEN, the relative viability falls from 0.997 to 0.788.

Going from HARA to HCC-78, the relative viability falls from 1.13 to 0.945.

Going from NCI-H322M to LCLC-97TM1, the relative viability falls from 0.928 to 0.913.

First: NCI-H2009
Second: A-427
The relative viability of the first is higher: 0.987 for the first, 0.898 for the second.

Compared with NCI-H661, NCI-H1734 is higher in relative viability: 0.958 for the first, 0.97 for the second.

Compared with NCI-H460, NCI-H2347 is higher in relative viability: 1 for the first, 1.05 for the second.

Going from SK-LU-1 to NCI-H1395, the relative viability falls from 0.989 to 0.86.

Same assay, conditions: 10 µM

Going from NCI-H2085 to Calu-6, the relative viability falls from 0.829 to 0.747.

Going from HCC-366 to NCI-H1666, the relative viability falls from 0.928 to 0.834.

First: NCI-H596
Second: LK-2
The relative viability of the first is higher: 0.781 for the first, 0.556 for the second.

Going from NCI-H2087 to SK-MES-1, the relative viability falls from 0.747 to 0.704.

Going from H3255 to COR-L23, the relative viability falls from 0.782 to 0.484.

Compared with COR-L 105, LOU-NH91 is higher in relative viability: 0.831 for the first, 0.875 for the second.

Compared with NCI-H2170, NCI-H2405 is lower in relative viability: 0.933 for the first, 0.871 for the second.

First: HOP-62
Second: HCC-44
The relative viability of the first is lower: 0.564 for the first, 0.701 for the second.

Going from A549 to LU99A, the relative viability rises from 0.519 to 0.883.

First: BEN
Second: HCC-78
The relative viability of the first is lower: 0.45 for the first, 0.626 for the second.

Going from NCI-H322M to LCLC-97TM1, the relative viability falls from 0.784 to 0.652.

First: NCI-H2009
Second: A-427
The relative viability of the first is higher: 0.793 for the first, 0.65 for the second.

Compared with NCI-H661, NCI-H1734 is lower in relative viability: 0.961 for the first, 0.771 for the second.

First: NCI-H460
Second: NCI-H2347
The relative viability of the first is lower: 0.662 for the first, 0.753 for the second.

First: SK-LU-1
Second: NCI-H1395
The relative viability of the first is lower: 0.626 for the first, 0.788 for the second.

Same assay, conditions: 31.62 µM

Compared with NCI-H2085, Calu-6 is lower in relative viability: 0.972 for the first, 0.7 for the second.

Compared with HCC-366, NCI-H1666 is higher in relative viability: 0.856 for the first, 1.02 for the second.

Compared with NCI-H596, LK-2 is lower in relative viability: 1.06 for the first, 0.544 for the second.

Going from NCI-H2087 to SK-MES-1, the relative viability falls from 0.894 to 0.673.

First: H3255
Second: COR-L23
The relative viability of the first is higher: 0.998 for the first, 0.504 for the second.

First: COR-L 105
Second: IA-LM
The relative viability of the first is higher: 1.15 for the first, 1.14 for the second.

First: LOU-NH91
Second: NCI-H2170
The relative viability of the first is higher: 0.979 for the first, 0.975 for the second.

Compared with NCI-H2405, HOP-62 is lower in relative viability: 0.968 for the first, 0.287 for the second.

Going from HCC-44 to A549, the relative viability falls from 0.843 to 0.75.

First: LU99A
Second: BEN
The relative viability of the first is higher: 0.689 for the first, 0.378 for the second.

Compared with HARA, HCC-78 is lower in relative viability: 1.06 for the first, 0.916 for the second.

Going from NCI-H322M to LCLC-97TM1, the relative viability falls from 0.888 to 0.335.

Compared with NCI-H2009, A-427 is lower in relative viability: 0.704 for the first, 0.55 for the second.

Going from NCI-H661 to NCI-H1734, the relative viability falls from 1.06 to 0.579.

Going from NCI-H460 to NCI-H2347, the relative viability rises from 0.498 to 0.583.

First: SK-LU-1
Second: NCI-H1395
The relative viability of the first is higher: 0.739 for the first, 0.676 for the second.

Same assay, conditions: 100 µM

Going from NCI-H2085 to Calu-6, the relative viability falls from 0.662 to 0.246.

First: HCC-366
Second: NCI-H1666
The relative viability of the first is lower: 0.297 for the first, 0.868 for the second.

Going from NCI-H596 to LK-2, the relative viability falls from 0.989 to 0.392.

Going from NCI-H2087 to SK-MES-1, the relative viability falls from 0.381 to 0.286.

Compared with H3255, COR-L23 is lower in relative viability: 1.05 for the first, 0.177 for the second.

Going from COR-L 105 to IA-LM, the relative viability falls from 0.873 to 0.863.

Going from LOU-NH91 to NCI-H2170, the relative viability falls from 0.725 to 0.693.

Going from NCI-H2405 to HOP-62, the relative viability falls from 0.726 to 0.213.

Going from HCC-44 to A549, the relative viability falls from 0.44 to 0.155.

First: LU99A
Second: BEN
The relative viability of the first is lower: 0.246 for the first, 0.333 for the second.

Going from HARA to HCC-78, the relative viability falls from 0.897 to 0.387.

Going from NCI-H322M to LCLC-97TM1, the relative viability falls from 0.673 to 0.143.

Compared with NCI-H2009, A-427 is lower in relative viability: 0.358 for the first, 0.267 for the second.

Compared with NCI-H661, NCI-H1734 is lower in relative viability: 1.04 for the first, 0.289 for the second.

First: NCI-H460
Second: NCI-H2347
The relative viability of the first is lower: 0.096 for the first, 0.489 for the second.

Compared with SK-LU-1, NCI-H1395 is lower in relative viability: 0.544 for the first, 0.511 for the second.
